Laboratory results published in patent publication US5118804A, “Process for preparing alkyl-1-thioglycosides and alkyl-glycosides, anomer mixtures thereof” (Beghin-Say, SA, priority 1989, dated 1992).

Columns and labels:
[1] = Critical micelle concentration (CMC), Tsuchiya and Saito method; assay type: physicochemical; conditions: α,β anomer mixtures
Text: The critical micelle concentrations as measured according to the Tsuchiya and Saito method, J. Biochem., 96 (1984), 1593, are set forth in Table 1 for various fatty acid chain alkyl-1-thio-α,β-glycosides prepared according to the present invention.

[2] = system: cytochromes P-45011β and P-450scc; assay: Extraction of cytochromes P-45011β and P-450scc from mitochondrions of the bovine suprarenal cortex, and inactivation of the proteins; conditions: proteins 20 mg/ml, detergent 15 mg/ml; for Extraction rate [after 1 h] / Inactivation rate [after 1 h]: pH 7.4, after 1 h; for Extraction rate [after 2 h] / Inactivation rate [after 2 h]: pH 7.4, after 2 h
Text: For example, but without implying any limitation with regard to other uses, several alkyl-1-thio-α,β-glycosides prepared in the manner of the invention were used to extract membrane proteins from the bovine suprarenal cortex. The suprarenal cortex cells contain enzyme systems which cause steroidogenesis. […] In conventionally used methods, they are optimally extracted in the presence of sodium cholate. However, the ionic nature of the sodium cholate detergent results in a greater denaturation rate of the enzymatic proteins as the contact time between the proteins and the sodium cholate is prolonged. Accordingly, and in particular, the sodium cholate detergent presents difficulties when used to reconstitute the lipid environment of these proteins.
(§1) The membrane proteins are extracted by incubation in a suitable buffer containing 50 mM potassium phosphate, pH=7.4, 1 mM dithiothreitol, 1 mM EDTA, and 10 μM desoxycorticosterone. The respective concentrations of proteins and detergents are 20 and 15 mg/ml. Following incubation, the medium is centrifuged (100,000 g, 45 mins.) and the cytochromes P-450 are metered into the supernatant by recording the differential spectrum for the reduced form Fe^2+ and the complex Fe^2+ CO. Denaturation is estimated by the absorption difference measured at 450 nm (native form) and 420 nm (denatured form).

[3] = system: cytochrome P-45017α; assay: Extraction of cytochrome P-45017α from bovine suprarenal cortex microsomes, and inactivation of the protein; parameters: unit not given here; conditions: 30 mins. at 4° C, proteins 4 mg/ml, detergent 15 mg/ml
Text: These CMC values allow the glycosides to be used as detergents in membrane protein extraction. For example, but without implying any limitation with regard to other uses, several alkyl-1-thio-α,β-glycosides prepared in the manner of the invention were used to extract membrane proteins from the bovine suprarenal cortex. The suprarenal cortex cells contain enzyme systems which cause steroidogenesis. These are membrane enzymes in the mitochondrions (cytochromes P-45011β and P-450scc) and in the microsomes (cytochrome P-45017α). In conventionally used methods, they are optimally extracted in the presence of sodium cholate. However, the ionic nature of the sodium cholate detergent results in a greater denaturation rate of the enzymatic proteins as the contact time between the proteins and the sodium cholate is prolonged. Accordingly, and in particular, the sodium cholate detergent presents difficulties when used to reconstitute the lipid environment of these proteins.
as §1, with “The mitochondrions of the bovine suprarenal cortex are prepared in the manner of M. Satre & P. V. Vignais (Biochemistry, 13 (1974) 2201). The membrane” for “The membrane”
The extraction of cytochrome P-45017α involved obtaining the bovine suprarenal cortex microsomes in the form of a button after 45 mins. centrifugation at 100,000 g of the post-mitochondrial supernatant. The membrane proteins are extracted as indicated above in reference to Table 2 for 30 mins. at 4° C. The respective concentrations of the proteins and detergents are 4 and 15 mg/ml. Following centrifugation, the activity of cytochrome P-45017α is measured in the supernatant by checking the transformation of (^3 H)-pregnenolone into (^3 H)-17α-hydroxy-pregnenolone.

[4] = Chem. Pharm. Bull., 33 (1985), 503-8; cited from earlier work

Row | SMILES | Critical micelle concentration (CMC) [1] [mM] | Extraction rate [3] | Inactivation rate [3] | Extraction rate [after 1 h] [2] [%] | Inactivation rate [after 1 h] [2] [%] | Extraction rate [after 2 h] [2] [%] | Inactivation rate [after 2 h] [2] [%] | CMC of the prior art mentioned in the literature [4] [mM]
1 | CCCCCCCSC1O[C@H](CO)[C@@H](O)[C@H](O)[C@H]1O (stereo partly drawn) [1-heptyl-1-thio-α,β-D-glucopyranoside] | 4.1 | 85 | 0 | 0 | 48 | 0 | 47 | –
2 | CCCCCCCSC1O[C@H](CO)[C@@H](O[C@@H]2O[C@H](CO)[C@H](O)[C@H](O)[C@H]2O)[C@H](O)[C@H]1O (stereo partly drawn) [1-heptyl-1-thio-α,β-lactoside] | – | 57 | 0 | 0 | 30 | 0 | 50 | –
3 | CCCCCCCCSC1O[C@H](CO)[C@@H](O)[C@H](O)[C@H]1O (stereo partly drawn) [1-octyl-1-thio-α,β- -- D-glucopyranoside, 1-octyl-1-thio-α,β-D-glucopyranoside] | 3.0 | 93 | 0 | 43 | 60 | 49 | 72 | –
4 | CCCCCCCCSC1O[C@H](CO)[C@@H](O[C@@H]2O[C@H](CO)[C@@H](O)[C@H](O)[C@H]2O)[C@H](O)[C@H]1O (stereo partly drawn) [1-octyl-1-thio-α,β-cellobioside] | 0.2 | 72 | 0 | 0 | 55 | 0 | 20 | –
5 | C[C@H](CCC(=O)O)[C@H]1CC[C@H]2[C@@H]3[C@H](O)C[C@@H]4C[C@H](O)CC[C@]4(C)[C@H]3C[C@H](O)[C@]12C [sodium cholate, reference compound] | – | – | – | 0 | 94 | – | – | –

The next lines start with results.

Row | Critical micelle concentration (CMC) [1] [mM] | Extraction rate [3] | Inactivation rate [3] | SMILES | Extraction rate [after 1 h] [2] [%] | Inactivation rate [after 1 h] [2] [%] | Extraction rate [after 2 h] [2] [%] | Inactivation rate [after 2 h] [2] [%] | CMC of the prior art mentioned in the literature [4] [mM]
6 | 0.2 | 65 | 57 | CCCCCCCCSC1O[C@H](CO)[C@@H](O[C@@H]2O[C@H](CO)[C@H](O)[C@H](O)[C@H]2O)[C@H](O)[C@H]1O (stereo partly drawn) [1-octyl-1-thio-α,β-lactoside] | 0 | 55 | 0 | 62 | –
7 | 0.2 | 58 | 0 | CCCCCCCCSC1O[C@H](CO)[C@@H](O[C@H]2O[C@H](CO)[C@@H](O)[C@H](O)[C@H]2O)[C@H](O)[C@H]1O (stereo partly drawn) [1-octyl-1-thio-α,β-maltoside] | 0 | 48 | 21 | 94 | –
8 | – | 31 | 0 | CCCCCCCCS[C@@H]1O[C@H](CO)[C@@H](O)[C@H](O)[C@H]1O [1-octyl-1-thio-β- -- D-glucopyranoside, 1-octyl-1-thio-β-D-glucopyranoside, reference compound] | 0 | 18 | 48 | 91 | 9.0
9 | – | 89 | 20 | CCCCCCCCO[C@@H]1O[C@H](CO)[C@@H](O)[C@H](O)[C@H]1O [1-octyl-β-D-glucopyranoside, reference compound] | 0 | 100 | 0 | 100 | –
